Key:
[1] = refractive index (Na D-line) (dimensionless); xn = mol fraction of the nth substance listed; conditions: 101.3 kPa, Liquid, Standard Abbe refractometry
[2] = relative permittivity at various frequencies (dimensionless); xn = mol fraction of the nth substance listed; conditions: 101.3 kPa, Liquid, Frequency=0.1 MHz, Coaxial cylinder capacitor
[3] = refractive index (Na D-line) (dimensionless); conditions: 101.3 kPa, Liquid, Standard Abbe refractometry
[4] = relative permittivity at various frequencies (dimensionless); conditions: 101.3 kPa, Liquid, Frequency=0.1 MHz, Coaxial cylinder capacitor
[5] = 298.15 K; 101.33 kPa; Liquid; Vibrating tube method

C1COCCO1 [1,4-dioxane] + CCCCCO
Conditions | refractive index, 298.15 K | refractive index, 308.15 K | refractive index, 318.15 K | relative permittivity, 298.15 K | relative permittivity, 308.15 K | relative permittivity, 318.15 K
[1], x2 = 0 | 1.4202 | 1.4144 | 1.4086 | – | – | –
[1], x2 = 0.1 | 1.4181 | 1.4121 | 1.407 | – | – | –
[1], x2 = 0.2 | 1.4161 | 1.4103 | 1.4055 | – | – | –
[1], x2 = 0.3 | 1.4144 | 1.4088 | 1.4042 | – | – | –
[1], x2 = 0.4 | 1.4128 | 1.4074 | 1.403 | – | – | –
[1], x2 = 0.501 | 1.4114 | 1.4063 | 1.4021 | – | – | –
[1], x2 = 0.599 | 1.4104 | 1.4055 | 1.4014 | – | – | –
[1], x2 = 0.699 | 1.4096 | 1.4048 | 1.4008 | – | – | –
[1], x2 = 0.801 | 1.409 | 1.4044 | 1.4004 | – | – | –
[1], x2 = 0.9 | 1.4086 | 1.4042 | 1.4002 | – | – | –
[2], x2 = 0 | – | – | – | 2.229 | 2.209 | 2.187
[2], x2 = 0.1 | – | – | – | 2.657 | 2.587 | 2.527
[2], x2 = 0.2 | – | – | – | 3.255 | 3.124 | 3.024
[2], x2 = 0.3 | – | – | – | 4.016 | 3.77 | 3.63
[2], x2 = 0.4 | – | – | – | 4.941 | 4.63 | 4.402
[2], x2 = 0.501 | – | – | – | 6.082 | 5.652 | 5.34
[2], x2 = 0.599 | – | – | – | 7.387 | 6.781 | 6.332
[2], x2 = 0.699 | – | – | – | 8.915 | 8.18 | 7.529
[2], x2 = 0.801 | – | – | – | 10.714 | 9.793 | 8.951
[2], x2 = 0.9 | – | – | – | 12.796 | 11.622 | 10.578

CC(C)CCO [3-methylbutan-1-ol]
Conditions | refractive index, 298.15 K | refractive index, 308.15 K | refractive index, 318.15 K | relative permittivity, 298.15 K | relative permittivity, 308.15 K | relative permittivity, 318.15 K
[3] | 1.4048 | 1.4011 | 1.3973 | – | – | –
[4] | – | – | – | 14.93 | 13.402 | 12.051

Conditions | mass density [kg/m3]
[5] | 807.16

Source: the NIST ThermoML archive (doi:10.1016/j.jct.2015.08.021)
